Measurements published in PMC8320996, “Negative regulation of melatonin secretion by melatonin receptors in ovine pinealocytes” (PLoS ONE, 2021).

Target: T1, MT1
T1 construct: gene MTNR1A; native receptors in primary ovine pinealocytes (MT1 and MT2 not resolved)
Test: saturation radioligand binding on primary ovine pinealocytes, Scatchard analysis
Assay type: cell-based, Ovis aries

COc1ccc2[nH]c(I)c(CCNC(C)=O)c2c1 [2-[^125I]-MLT]
Kd: 2.24 ± 1.1 nM
